Data reported in patent publication US9157074B2, “Beta-amylase, gene coding therefor and manufacturing method thereof” (Amano Enzyme Inc., priority 2008, dated 2015).
“Also recorded” adds a separate entry of the source.

What was measured:
[1] = test system: β-amylase; experiment: Effect of metal ion and inhibitor on β-amylase activity; assay type: biochemical, Bacillus flexus; conditions: 30° C., 30 minutes; for Relative activity: 1 mM metal ion or inhibitor, pH 5.0, not added = 100%; for effect on activity: 1 mM
Description: (§1) The activity of β-amylase was measured as follows. To 0.5 ml of 0.1M phosphate-HCl buffer solution (pH 5.0) containing 1% soluble starch and 10 mM calcium acetate, 0.5 ml of enzyme solution was added. The mixture was incubated at 37° C. for 30 minutes. Then, 2.5 ml of DNS solution (0.2% DNS, 80 mM NaOH, 0.2 M potassium sodium tartrate tetrahydrate) was added to the mixture so as to stop the reaction. After the reaction was stopped, the reaction mixture was boiled for five minutes, the absorbance was measured at the wavelength of 530 nm. The enzyme amount when the absorbance measured at the wavelength of 530 nm is 1 is defined as one unit.
To β-amylase in 0.1 M acetic acid-hydrochloric acid buffer solution (pH 5.0) containing 10 mM calcium acetate, 1 mM of various metal ions or inhibitor were added, respectively, treated at 30° C. for 30 minutes, and then the activity was measured by the above-mentioned β-amylase activity. The values were shown as the relative activity when the metal ion and inhibitor were not added is defined as 100%. The activity was inhibited by Cu ion, iodine acetic acid, PCMB, and SDS.

[2] = test system: β-amylase; experiment: Substrate specificity of β-amylase; assay type: biochemical, Bacillus flexus; conditions: for Relative activity (%): activity with respect to soluble starch = 100%, oligosaccharides 0.5%, 0.1 u/ml enzyme, 37° C., 30 minutes, maltose by HPLC; for substrate specificity (words): relative to soluble starch = 100%
Description: as §1
The β-amylase activity with respect to each substrate was examined. The values are shown as the relative activity when the activity with respect to soluble starch is defined as 100%. As to oligosaccharides, the production amount of maltose was examined by the below-mentioned quantification amount of maltose. After 0.1 u/ml enzyme was reacted to 0.5% of each maltooligosaccharide at 37° C. for 30 minutes, quantification of maltose was carried out by HPLC (Aminex carbohydrate HPX-42A, BIO-RAD). A production amount of maltose when the substrate is soluble starch is defined as 100%, the relative activity with respect to each maltooligosaccharide was calculated from the production amount of maltose.
The values were shown as the relative activity when a production amount of maltose with respect to soluble starch is defined as 100%.

[3] = Optimum reaction temperature of β-amylase; assay type: biochemical; conditions: pH 5.0, reaction temperatures 25 to 70° C.
Description: as §1
According to the above-mentioned β-amylase activity measurement method, reaction was carried out at the reaction temperatures of 25° C., 37° C., 50° C., 55° C., 60° C., 65° C., and 70° C. […] The optimum reaction temperature was around 55° C. (FIG. 1).

[4] = pH stability; assay type: physicochemical; conditions: pH 4 to 9, 30° C., three hours
Description: as §1
β-amylase was treated in each of the buffer solutions (citric acid buffer: pH2, pH3, and pH4, Britton-Robinson buffer: pH4, pH5, pH6, pH7, pH8, pH9, pH10, and pH11) at 30° C. for three house, and then the activity was measured by the above-mentioned β-amylase activity measurement method. […] The […] was 4 to 9 (FIG. 4).

[5] = β-amylase specific activity at each purification stage; assay type: biochemical
Description: as §1
Bacillus flexus APC9451 was cultured with shaking at 30° C. for three days by using a liquid medium having the compositions shown in Table 1. The obtained culture supernatant solution was four-times concentrated by using an UF membrane (AIP-0013, Asahi Kasei Corporation), and then ammonium sulfate was added thereto so as to obtain 60% saturation concentration. The precipitate fraction was dissolved again in 20 mM acetic acid buffer solution (pH 5.5). Then, to the mixture solution, ammonium sulfate was added so as to obtain 20% saturation concentration. […]

[6] = Isoelectric point by isoelectric point precipitation using Ampholine; assay type: physicochemical; conditions: 600V, 4° C., 48 hours
Description: When the isoelectric point of the present enzyme was measured by isoelectric point precipitation using Ampholine (electrification at 600V, at 4° C., for 48 hours), it was 9.7.

[7] = Thermostability (remaining activity after heat treatment); assay type: physicochemical
Description: as §1
The enzyme solution (20 u/ml) was subjected to heat treatment in 0.1 M acetic acid-hydrochloric acid buffer solution (pH 5.0) containing 10 mM calcium acetate at each temperature of 37° C., 50° C., 55° C., 60° C., 65° C. and 70° C. for 10 minutes, and then the remaining activity was measured by the above-mentioned β-amylase activity measurement method. The values are shown as the remaining activity when the remaining activity with no heat treatment is defined as 100%. […] (FIG. 3).

[8] = Optimum reaction pH of β-amylase; assay type: biochemical; conditions: 1% soluble starch, 37° C., 10 minutes; citric acid buffer pH2-4, Britton-Robinson buffer pH4-11
Description: For the substrate, 1% soluble starch was used, and the measurement was carried out in each buffer solution (citric acid buffer: pH2, pH3, and pH4, Britton-Robinson buffer: pH4, pH5, pH6, pH7, pH8, pH9, pH10, and pH11) at 37° C. for 10 minutes. […] The optimum reaction pH was about 8.0 (FIG. 2).

Molecule	Relative activity [1]	Relative activity (%) [2]	further results
[Ca+2] [Ca^2+]	130%	–	–
[Cu+2] [Cu^2+]	46%	–	effect on activity [1]: inhibited
[Fe+2] [Fe^2+]	105%	–	Relative activity ([1]; listed as Fe^3+): 113%
[K+] [K^+]	96%	–	–
OC[C@H]1O[C@H](O[C@H]2[C@H](O)[C@@H](O)[C@@H](O[C@H]3[C@H](O)[C@@H](O)[C@@H](O[C@H]4[C@H](O)[C@@H](O)C(O)O[C@@H]4CO)O[C@@H]3CO)O[C@@H]2CO)[C@H](O)[C@@H](O)[C@@H]1O (stereo partly shown) [Maltotetraose]	–	75%	–
[Mg+2] [Mg^2+]	103%	–	–
[Mn+2] [Mn^2+]	222%	–	–
CCN1C(=O)C=CC1=O [N-ethylmaleimide]	93%	–	–
[Na+] [Na^+]	88%	–	–
O=C(O)c1cc[c]([Hg][Cl])cc1 [PCMB]	25%	–	effect on activity [1]: inhibited
CCCCCCCCCCCCOS(=O)(=O)[O-].[Na+] [SDS]	37%	–	effect on activity [1]: inhibited
[Zn+2] [Zn^2+]	96%	–	–
O=C(O)CI [monoiodoacetic acid]	14%	–	effect on activity [1]: inhibited
OC[C@H]1O[C@@H]2O[C@H]3[C@H](O)[C@@H](O)[C@@H](O[C@H]4[C@H](O)[C@@H](O)[C@@H](O[C@H]5[C@H](O)[C@@H](O)[C@@H](O[C@H]6[C@H](O)[C@@H](O)[C@@H](O[C@H]7[C@H](O)[C@@H](O)[C@@H](O[C@H]1[C@H](O)[C@H]2O)O[C@@H]7CO)O[C@@H]6CO)O[C@@H]5CO)O[C@@H]4CO)O[C@@H]3CO [α-cyclodextrin]	–	0%	–
OC[C@H]1O[C@@H]2O[C@H]3[C@H](O)[C@@H](O)[C@@H](O[C@H]4[C@H](O)[C@@H](O)[C@@H](O[C@H]5[C@H](O)[C@@H](O)[C@@H](O[C@H]6[C@H](O)[C@@H](O)[C@@H](O[C@H]7[C@H](O)[C@@H](O)[C@@H](O[C@H]8[C@H](O)[C@@H](O)[C@@H](O[C@H]1[C@H](O)[C@H]2O)O[C@@H]8CO)O[C@@H]7CO)O[C@@H]6CO)O[C@@H]5CO)O[C@@H]4CO)O[C@@H]3CO [β-cyclodextrin]	–	1.4%	–
OC[C@H]1O[C@@H]2O[C@H]3[C@H](O)[C@@H](O)[C@@H](O[C@H]4[C@H](O)[C@@H](O)[C@@H](O[C@H]5[C@H](O)[C@@H](O)[C@@H](O[C@H]6[C@H](O)[C@@H](O)[C@@H](O[C@H]7[C@H](O)[C@@H](O)[C@@H](O[C@H]8[C@H](O)[C@@H](O)[C@@H](O[C@H]9[C@H](O)[C@@H](O)[C@@H](O[C@H]1[C@H](O)[C@H]2O)O[C@@H]9CO)O[C@@H]8CO)O[C@@H]7CO)O[C@@H]6CO)O[C@@H]5CO)O[C@@H]4CO)O[C@@H]3CO [γ-cyclodextrin-, γ-cyclodextrin]	–	0.6%	–
Maltoheptaose	–	111%	–
Maltohexaose	–	131%	–
Maltopentaose	–	102%	–
Maltotriose	–	0%	substrate specificity (words) [2]: did not act; also recorded: does not substantially act
cyclodextrin	–	–	substrate specificity (words) [2]: does not substantially act; substrate specificity (words) ([2]; listed as Cyclodextrin): almost broken down
β-amylase: purified β-amylase from Bacillus flexus APC9451, amino acid sequence SEQ ID NO: 7; final HiLoad 16/60 Superdex200 stage (protein, listed as Bacillus flexus) MYKPIKKFASLIVLLSFVAAFILGPTNSQAAVNGQSFNSNYKTYLMAPLKKVTEFTTWEAFENDLRKAKQNGFYAVTVDFWWGDMEKNGDQQFDFSYAQRFAQAARNAGIKMVPIISTHQCGGNVGDDCNTPLPSWIWNTKTDDSLYFKSETGTVNKETVNPLATDVITKQYGELYTAFAQALAPYKDVIPKVYLSGGPAGELRYPSYTAADGTGYPSRGKFQAYTDFAKSKFQMWAVNKYGSLAGVNQAWGLSLTSTSQILPPSDGNQFLKDGYNTNYGKDFLEWYQGVLQDHAKRIGALAHQAFDPVFNVPVGAKIAGIHWQYNNPTMPHAAEKPAGYNNYSTLLDSFKTAKLDLTFTCLEMVDSGTYPEYSMPKTLVKEVASLANAKGIVLNGENALSIGSEEQYKRAAEMTFNYNFAGFTLLRFYDVINNSTRMSQFNQHLNIKPVAQTMVVKNAPTSSGESVYIVGDRPELGQWDTIAYPIKLSYNSTYGDWRGTVNFPADRSVQFKAIIKRSDGSLKSWQPTQQYWNVPGTPTTYTNNW	–	–	optimum reaction temperature [3]: around 55 °C; optimum reaction temperature ([3]; listed as the present enzyme): about 55 °C; activity with respect to the maximum activity after treatment [4]: ≥ 70%; specific activity in the final stage as compared with that of the crude enzyme ([5]; final purification stage vs crude enzyme): 2270 times; Specific activity ([5]; purification stage of β-amylase from Bacillus flexus APC9451): 1569 u/mg; isoelectric point [6]: 9.7; remaining activity after heat treatment ([7]; 55° C., 10 minutes, 0.1 M acetic acid-hydrochloric acid buffer pH 5.0, 10 mM calcium acetate, no heat treatment = 100%): ≥ 90%; thermostability (temperature until which stable) ([7]; pH 5.0, 10 minutes): ≤ 55 °C; optimum reaction pH [8]: about 8.0
